# Test results published in ChEMBL document CHEMBL3580659, “One-pot multicomponent synthesis of indole incorporated thiazolylcoumarins and their antibacterial, anticancer and DNA cleavage studies” (2015).
# Experiments:
# Type in all cases: functional
# [1] = system: HL-60(TB); test: Cytotoxicity against human HL-60(TB) cells assessed as cell growth level at 100 nM after 48 hrs by sulforhodamine B assay
# [2] = system: MDA-MB-231; test: Cytotoxicity against human MDA-MB-231/ATCC cells assessed as cell growth level at 100 uM after 48 hrs by sulforhodamine B assay
# [3] = system: UACC-62; test: Cytotoxicity against human UACC62 cells assessed as cell growth level at 1 uM after 48 hrs by sulforhodamine B assay
# [4] = system: SF-539; test: Cytotoxicity against human SF539 cells assessed as cell growth level at 100 uM after 48 hrs by sulforhodamine B assay
# [5] = system: MDA-MB-435; test: Cytotoxicity against human MDA-MB-435 cells assessed as cell growth level at 10 nM after 48 hrs by sulforhodamine B assay
# [6] = system: HL-60(TB); test: Cytotoxicity against human HL-60(TB) cells after 48 hrs by sulforhodamine B assay; settings: HL-60, 48 h
# [7] = system: M14; test: Cytotoxicity against human M14 cells assessed as cell growth level at 100 uM after 48 hrs by sulforhodamine B assay
# [8] = system: SNB-75; test: Cytotoxicity against human SNB75 cells after 48 hrs by sulforhodamine B assay; settings: SNB-75, 48 h
# [9] = Cytotoxicity against human NCI-ADR-RES cells assessed as cell growth level at 100 uM after 48 hrs by sulforhodamine B assay
# [10] = system: OVCAR-8; test: Cytotoxicity against human OVCAR8 cells assessed as cell growth level at 10 nM after 48 hrs by sulforhodamine B assay
# [11] = system: UO-31; test: Cytotoxicity against human UO31 cells assessed as cell growth level at 1 uM after 48 hrs by sulforhodamine B assay
# [12] = system: CCRF-CEM; test: Cytotoxicity against human CCRF-CEM cells assessed as cell growth level at 100 uM after 48 hrs by sulforhodamine B assay
# [13] = system: MDA-MB-435; test: Cytotoxicity against human MDA-MB-435 cells assessed as cell growth level at 10 uM after 48 hrs by sulforhodamine B assay
# [14] = system: CAKI-1; test: Cytotoxicity against human CAKI-1 cells assessed as cell growth level at 10 uM after 48 hrs by sulforhodamine B assay
# [15] = system: MDA-MB-231; test: Cytotoxicity against human MDA-MB-231/ATCC cells assessed as cell growth level at 10 uM after 48 hrs by sulforhodamine B assay
# [16] = system: MDA-MB-468; test: Cytotoxicity against human MDA-MB-468 cells assessed as cell growth level at 1 uM after 48 hrs by sulforhodamine B assay
# [17] = system: M14; test: Cytotoxicity against human M14 cells assessed as cell growth level at 10 nM after 48 hrs by sulforhodamine B assay
# [18] = system: CAKI-1; test: Cytotoxicity against human CAKI-1 cells assessed as cell growth level at 100 nM after 48 hrs by sulforhodamine B assay
# [19] = system: MDA-MB-435; test: Cytotoxicity against human MDA-MB-435 cells after 48 hrs by sulforhodamine B assay; settings: MDA-MB-435, 48 h
# [20] = system: SK-MEL-28; test: Cytotoxicity against human SK-MEL-28 cells assessed as cell growth level at 100 nM after 48 hrs by sulforhodamine B assay
# [21] = system: DU-145; test: Cytotoxicity against human DU145 cells after 48 hrs by sulforhodamine B assay; settings: DU-145, 48 h
# [22] = system: K562; test: Cytotoxicity against human K562 cells after 48 hrs by sulforhodamine B assay; settings: K562, 48 h
# [23] = system: HOP-62; test: Cytotoxicity against human HOP62 cells assessed as cell growth level at 10 nM after 48 hrs by sulforhodamine B assay
# [24] = system: NCI-H226; test: Cytotoxicity against human NCI-H226 cells assessed as cell growth level at 100 uM after 48 hrs by sulforhodamine B assay
# [25] = system: NCI-H23; test: Cytotoxicity against human NCI-H23 cells after 48 hrs by sulforhodamine B assay; settings: NCI-H23, 48 h
# [26] = system: SR; test: Cytotoxicity against human SR cells assessed as cell growth level at 10 uM after 48 hrs by sulforhodamine B assay
# [27] = system: HOP-92; test: Cytotoxicity against human HOP92 cells assessed as cell growth level at 100 uM after 48 hrs by sulforhodamine B assay
# [28] = system: HL-60(TB); test: Cytotoxicity against human HL-60(TB) cells assessed as cell growth level at 10 nM after 48 hrs by sulforhodamine B assay
# [29] = system: MCF7; test: Cytotoxicity against human MCF7 cells after 48 hrs by sulforhodamine B assay; settings: MCF7, 48 h
# [30] = system: NCI-H226; test: Cytotoxicity against human NCI-H226 cells assessed as cell growth level at 1 uM after 48 hrs by sulforhodamine B assay
# [31] = system: 786-0; test: Cytotoxicity against human 786-0 cells assessed as cell growth level at 100 nM after 48 hrs by sulforhodamine B assay
# [32] = system: SK-MEL-2; test: Cytotoxicity against human SK-MEL-2 cells assessed as cell growth level at 10 nM after 48 hrs by sulforhodamine B assay
# [33] = system: HCT-15; test: Cytotoxicity against human HCT15 cells after 48 hrs by sulforhodamine B assay; settings: HCT-15, 48 h
# [34] = system: SK-MEL-5; test: Cytotoxicity against human SK-MEL-5 cells assessed as cell growth level at 100 nM after 48 hrs by sulforhodamine B assay
# [35] = system: DU-145; test: Cytotoxicity against human DU145 cells assessed as cell growth level at 100 nM after 48 hrs by sulforhodamine B assay
# [36] = system: IGROV-1; test: Cytotoxicity against human IGROV1 cells assessed as cell growth level at 100 uM after 48 hrs by sulforhodamine B assay
# [37] = read-out: LC50 (the source's name)
# [38] = read-out: pLC50 (the source's name) (converted)
structure (smiles),measurement,setting,value
O=c1oc2ccccc2cc1-c1csc(N/N=C/c2c[nH]c3ccccc23)n1,Activity,[1],97%
same,Activity,[2],-3%
same,Activity,[3],69%
same,Activity,[4],-4%
same,Activity,[5],92%
same,GI50,[6]; read-out: GI50,0.45 µM
same,CC50,[6]; [37],> 100 µM
same,TGI,[6]; read-out: TGI,7.64 µM
same,GI50,[6]; read-out: pGI50 (converted),0.457 µM
same,CC50,[6]; [38],> 100 µM
same,TGI,[6]; read-out: pTGI (converted),7.59 µM
same,Activity,[7],-77%
same,GI50,[8]; read-out: GI50,2 µM
same,CC50,[8]; [37],> 100 µM
same,TGI,[8]; read-out: TGI,8.92 µM
same,GI50,[8]; read-out: pGI50 (converted),2 µM
same,CC50,[8]; [38],> 100 µM
same,TGI,[8]; read-out: pTGI (converted),8.91 µM
same,Activity,[9],8%
same,Activity,[10],104%
same,Activity,[11],46%
same,Activity,[12],-39%
same,Activity,[13],22.44%
same,Activity,[14],-41.32%
same,Activity,[15],-37.04%
same,Activity,[16],72%
same,Activity,[17],97%
same,Activity,[18],88%
same,GI50,[19]; read-out: GI50,2.1 µM
same,CC50,[19]; [37],25.2 µM
same,TGI,[19]; read-out: TGI,5.47 µM
same,GI50,[19]; read-out: pGI50 (converted),2.09 µM
same,CC50,[19]; [38],25.1 µM
same,TGI,[19]; read-out: pTGI (converted),5.5 µM
same,Activity,[20],91%
same,GI50,[21]; read-out: GI50,1.8 µM
same,CC50,[21]; [37],> 100 µM
same,TGI,[21]; read-out: TGI,4.27 µM
same,GI50,[21]; read-out: pGI50 (converted),1.82 µM
same,CC50,[21]; [38],> 100 µM
same,TGI,[21]; read-out: pTGI (converted),4.27 µM
same,GI50,[22]; read-out: GI50,3.18 µM
same,LC50,[22]; read-out: LC50,> 100 µM
same,TGI,[22]; read-out: TGI,10.4 µM
same,GI50,[22]; read-out: pGI50 (converted),3.16 µM
same,LC50,[22]; read-out: pLC50 (converted),> 100 µM
same,TGI,[22]; read-out: pTGI (converted),10.5 µM
same,Activity,[23],105%
same,Activity,[24],-31%
same,GI50,[25]; read-out: GI50,2.44 µM
same,LC50,[25]; read-out: LC50,> 100 µM
same,TGI,[25]; read-out: TGI,5.82 µM
same,GI50,[25]; read-out: pGI50 (converted),2.45 µM
same,LC50,[25]; read-out: pLC50 (converted),> 100 µM
same,TGI,[25]; read-out: pTGI (converted),5.75 µM
same,Activity,[26],-0.54%
same,Activity,[27],-27%
same,Activity,[28],92%
same,GI50,[29]; read-out: GI50,2.4 µM
same,CC50,[29]; [37],> 100 µM
same,TGI,[29]; read-out: TGI,15.5 µM
same,GI50,[29]; read-out: pGI50 (converted),2.4 µM
same,CC50,[29]; [38],> 100 µM
same,TGI,[29]; read-out: pTGI (converted),15.5 µM
same,Activity,[30],101%
same,Activity,[31],82%
same,Activity,[32],98%
same,GI50,[33]; read-out: GI50,1.61 µM
same,CC50,[33]; [37],7.46 µM
same,TGI,[33]; read-out: TGI,3.47 µM
same,GI50,[33]; read-out: pGI50 (converted),1.62 µM
same,CC50,[33]; [38],7.41 µM
same,TGI,[33]; read-out: pTGI (converted),3.47 µM
same,Activity,[34],88%
same,Activity,[35],92%
same,Activity,[36],-71%
